Reference: PMC9875028, “Identification and virtual screening of novel anti-inflammatory peptides from broccoli fermented by Lactobacillus strains” (Frontiers in Nutrition, 2023)
Entries after “also recorded” stand apart in the source; their conditions may differ.

Key:
IL-6 [1] = assay: IL-6 secretion by LPS-stimulated RAW264.7 cells (ELISA); format: cell-based, Mouse; conditions: for effect on IL-6 production (in words): synthetic peptides 25, 50, 100 μM
Protocol: (§1) RAW264.7 cells were cultured in DMEM medium containing 10% FBS and 1% double antibody at 37°C and 5% CO2 incubator. CCK-8 reagent was used for cell viability assay.
(§2) RAW264.7 cells (3 × 10^6 cells / mL) seeded into 12-well plates were pretreated with various concentrations of broccoli hydrolyzates or synthetic peptides for 2 h before stimulation by LPS (200 ng/mL). NO was determined using Griess reagent. TNF-α and IL-6 were measured by ELISA kits according to the manufacturer's instructions. More details of the assay are shown in Supplementary Table S2.

TNF-α [2] = assay: TNF-α secretion by LPS-stimulated RAW264.7 cells (ELISA); format: cell-based, Mouse; conditions: for inhibition rate on TNF-α / effect on TNF-α production (in words): LPS 200 ng/mL; for inhibition rate on TNF-α: mean ± SD, n = 3; for effect on TNF-α production (in words): synthetic peptides 25, 50, 100 μM
Protocol: as §1, §2

NO = NO release from LPS-stimulated RAW264.7 cells (Griess reagent); format: cell-based, Mouse; conditions: LPS 200 ng/mL; for inhibition rate of NO release: mean ± SD, n = 3
Protocol: as §1, §2

TNF-α [3] = test system: TNF-α; design: method as in doi:10.1016/j.jff.2020.104044; conditions: sturgeon protein peptide; cited from earlier work
IL-6 [4] = test system: IL-6; design: method as in doi:10.1016/j.jff.2020.104044; conditions: sturgeon protein peptide; cited from earlier work
[5] = peptide concentration exceeding 25 μM

ADLAHLPF [synthetic peptide identified from broccoli hydrolysate]
effect on IL-6 production (in words) (IL-6 [1]; LPS 200 ng/mL): significantly inhibited
inhibition rate on TNF-α (TNF-α [2]; synthetic peptide 100 μM): 73.19 ± 5.31%
effect on TNF-α production (in words) (TNF-α [2]): significantly inhibited; also recorded: dose-dependently decreased TNF-α

CKVWPPLH
inhibition rate on TNF-α (TNF-α [2]; synthetic peptide 100 μM): 73.83 ± 0.81%
effect on TNF-α production (in words) (TNF-α [2]): dose-dependently decreased TNF-α

DGRYW [synthetic peptide identified from broccoli hydrolysate]
inhibition rate of NO release (NO; synthetic peptide 100 μM): 53.94 ± 2.49%
effect on NO secretion (in words) (NO; synthetic peptides 25, 50, 100 μM): reduced NO content in inflammatory cells in a dose-dependent manner

FGDFNPGGRL [synthetic peptide identified from broccoli hydrolysate]
effect on IL-6 production (in words) (IL-6 [1]; LPS 200 ng/mL): only inhibited IL-6 at a concentration of 50 μM
inhibition rate on TNF-α (TNF-α [2]; synthetic peptide 100 μM): 68.44 ± 5.63%
effect on TNF-α production (in words) (TNF-α [2]): dose-dependently decreased TNF-α

GDRW [synthetic peptide identified from broccoli hydrolysate]
effect on IL-6 production (in words) (IL-6 [1]; LPS 200 ng/mL): significantly inhibited
effect on TNF-α production (in words) (TNF-α [2]): significantly inhibited

KASFAFAGL [synthetic peptide identified from broccoli hydrolysate]
inhibitory activity on IL-6 secretion (in words) (IL-6 [1]; [5]): did not show inhibitory activity
inhibition rate on IL-6 (IL-6 [1]; synthetic peptide 25 μM (low dose), LPS 200 ng/mL, mean ± SD, n = 3): 29.84 ± 0.63%
inhibitory activity on TNF-α secretion (in words) (TNF-α [2]; [5]): did not show inhibitory activity
inhibition rate on TNF-α (TNF-α [2]; synthetic peptide 25 μM (low dose)): 43.59 ± 0.27%

KIWHHFF
TNF-α inhibitory activity (in words) (TNF-α [3]): did not exhibit TNF-α inhibitory activity
inhibition of LPS-induced IL-6 secretion (in words) (IL-6 [4]): inhibited LPS-induced IL-6 secretion only at the lowest concentration

SIWYGPDRP [synthetic peptide identified from broccoli hydrolysate]
inhibition rate of NO release (NO; synthetic peptide 25 μM): 52.32 ± 1.48%
